Measurements published in US9474790B2, “Stable, protracted GLP-1/glucagon receptor co-agonists for medical use” (Novo Nordisk A/S, priority 2013, dated 2016).
Numbered stars: 1 amine (or outer) side, 2 acyl side, 3 side chain; on linkers, the order of the positions; unused ones are H or OH. Bridge positions count the residues as written; N and C are the ends. Square brackets hold non-standard residues; d marks the D form. Side chains are listed from the residue outwards. Peptide text beside a SMILES is read from it. I, II: the chains in the order shown. * marks the point of attachment. C18 diacid = O=C(O)CCCCCCCCCCCCCCCCC(=O)*; γGlu = O=C(O)[C@H](CCC(=O)[*:2])N[*:1]; Ac4c = NC1(C(=O)O)CCC1; AEEA = NCCOCCOCC(=O)O; Aib = CC(C)(N)C(=O)O

experiment: Chemical stability assessment by RP-UPLC; type: physicochemical; details: 333 μM, 8 mM phosphate buffer pH 7.3, 37° C. vs 5° C.
Outline: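 Purity loss = (purity after 14 days at 5° C. minus that at 37° C.) relative to the 5° C. value, purity being main-peak area % by RP-UPLC with UV at 215 nm. Samples were 333 μM in 8 mM phosphate, pH 7.3; gradient adjusted for outlying retention times.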

Purity loss; 14 days at 37° C. [%] | Structure (SMILES)
1 | CC(C)C[C@H](NC(=O)[C@H](Cc1ccc(O)cc1)NC(=O)[C@H](CCCCN)NC(=O)[C@H](CO)NC(=O)[C@H](CC(C)C)NC(=O)[C@H](CC(=O)O)NC(=O)[C@H](CO)NC(=O)[C@@H](NC(=O)[C@H](Cc1ccccc1)NC(=O)[C@@H](NC(=O)CNC(=O)[C@H](CCC(N)=O)NC(=O)C1(NC(=O)[C@@H](N)Cc2c[nH]cn2)CCC1)[C@@H](C)O)[C@@H](C)O)C(=O)N[C@@H](CCC(=O)O)C(=O)N[C@@H](CO)C(=O)N[C@@H](CCCNC(=N)N)C(=O)N[C@@H](CCCNC(=N)N)C(=O)N[C@@H](C)C(=O)N[C@@H](CCC(N)=O)C(=O)N[C@@H](CC(=O)O)C(=O)N[C@@H](Cc1ccccc1)C(=O)N[C@H](C(=O)N[C@@H](CCC(N)=O)C(=O)N[C@@H](Cc1c[nH]c2ccccc12)C(=O)N[C@@H](CC(C)C)C(=O)N[C@@H](CC(C)C)C(=O)N[C@@H](CCCCNC(=O)COCCOCCNC(=O)COCCOCCNC(=O)CC[C@H](NC(=O)CC[C@H](NC(=O)CC[C@H](NC(=O)CCCCCCCCCCCCCCCCC(=O)O)C(=O)O)C(=O)O)C(=O)O)C(=O)N[C@H](C(N)=O)[C@@H](C)O)C(C)C [Example 63, N^ε28-[2-[2-[2-[[2-[2-[2-[[(4S)-4-carboxy-4-[[(4S)-4-carboxy-4-[[(4S)-4-carboxy-4-(17-carboxyheptadecanoylamino)butanoyl]amino]butanoyl]amino]butanoyl]amino]ethoxy]ethoxy]acetyl]amino]ethoxy]ethoxy]acetyl]-[Acb2,Leu10,Glu15,Leu27,Lys28]-Glucagon amide] (H-H[Ac4c]QGTFTSDLSKYLESRRAQDFVQWLLK([AEEA-AEEA-γGlu-γGlu-γGlu-C18 diacid])T-NH2; N-terminus assumed)
1 | CC(C)C[C@H](NC(=O)[C@H](Cc1ccc(O)cc1)NC(=O)[C@H](CCCCN)NC(=O)[C@H](CO)NC(=O)[C@H](CC(C)C)NC(=O)[C@H](CC(=O)O)NC(=O)[C@H](CO)NC(=O)[C@@H](NC(=O)[C@H](Cc1ccccc1)NC(=O)[C@@H](NC(=O)CNC(=O)[C@H](CCC(N)=O)NC(=O)C(C)(C)NC(=O)[C@@H](N)Cc1c[nH]cn1)[C@@H](C)O)[C@@H](C)O)C(=O)N[C@@H](CCC(=O)O)C(=O)N[C@@H](CO)C(=O)N[C@@H](CCCCN)C(=O)N[C@@H](CCCNC(=N)N)C(=O)N[C@@H](C)C(=O)N[C@@H](CCCNC(=N)N)C(=O)N[C@@H](CCC(=O)O)C(=O)N[C@@H](Cc1ccccc1)C(=O)N[C@H](C(=O)N[C@@H](CCC(N)=O)C(=O)N[C@@H](Cc1c[nH]c2ccccc12)C(=O)N[C@@H](CC(C)C)C(=O)N[C@@H](CC(C)C)C(=O)N[C@@H](CCCCNC(=O)CNC(=O)[C@H](CO)NC(=O)[C@H](CCC(=O)O)NC(=O)CNC(=O)[C@H](CO)NC(=O)CC[C@H](NC(=O)CC[C@H](NC(=O)CCCCCCCCCCCCCCCCC(=O)O)C(=O)O)C(=O)O)C(=O)N[C@H](C(N)=O)[C@@H](C)O)C(C)C [Example 25, N^ε28-[2-[[(2S)-2-[[(2S)-4-carboxy-2-[[2-[[(2S)-2-[[(4S)-4-carboxy-4-[[(4S)-4-carboxy-4-(17-carboxyheptadecanoylamino)butanoyl]amino]butanoyl]amino]-3-hydroxypropanoyl]amino]acetyl]amino]butanoyl]amino]-3-hydroxypropanoyl]amino]acetyl]-[Aib2,Leu10,Glu15,Lys17,Arg20,Glu21,Leu27,Lys28]-Glucagon amide] (I: H-H[Aib]QGTFTSDLSKYLESKRAREFVQWLLKT-NH2 / II: {C18 diacid-γGlu-γGlu}-SGESG; amide I:28-II:C; N-terminus assumed)
2 | CC(C)C[C@H](NC(=O)[C@H](CC(C)C)NC(=O)[C@H](Cc1c[nH]c2ccccc12)NC(=O)[C@H](CCC(N)=O)NC(=O)[C@@H](NC(=O)[C@H](Cc1ccccc1)NC(=O)[C@H](CCC(=O)O)NC(=O)[C@H](CCCNC(=N)N)NC(=O)[C@H](C)NC(=O)[C@H](CCCNC(=N)N)NC(=O)[C@H](CCCNC(=N)N)NC(=O)[C@H](CO)NC(=O)[C@H](CCC(=O)O)NC(=O)[C@H](CC(C)C)NC(=O)[C@H](Cc1ccc(O)cc1)NC(=O)[C@H](CCCCN)NC(=O)[C@H](CO)NC(=O)[C@H](CC(C)C)NC(=O)[C@H](CC(=O)O)NC(=O)[C@H](CO)NC(=O)[C@@H](NC(=O)[C@H](Cc1ccccc1)NC(=O)[C@@H](NC(=O)CNC(=O)[C@H](CCC(N)=O)NC(=O)C(C)(C)NC(=O)[C@@H](N)Cc1c[nH]cn1)[C@@H](C)O)[C@@H](C)O)C(C)C)C(=O)N[C@@H](CC(N)=O)C(=O)N[C@@H](CCCCNC(=O)CC[C@H](NC(=O)CC[C@H](NC(=O)COCCOCCNC(=O)CC[C@H](NC(=O)CCCCCCCCCCCCCCCCC(=O)O)C(=O)O)C(=O)O)C(=O)O)C(N)=O [Example 40, N^ε29-[(4S)-4-carboxy-4-[[(4S)-4-carboxy-4-[[2-[2-[2-[[(4S)-4-carboxy-4-(17-carboxyheptadecanoylamino)butanoyl]amino]ethoxy]ethoxy]acetyl]amino]butanoyl]amino]butanoyl]-[Aib2,Leu10,Glu15,Arg20,Glu21,Leu27,Lys29]-Glucagon amide] (H-H[Aib]QGTFTSDLSKYLESRRAREFVQWLLNK([γGlu-γGlu-AEEA-γGlu-C18 diacid])-NH2; N-terminus assumed)
